From paper PMC2716488, “Functional Expression of a DNA-Topoisomerase IB from Cryptosporidium parvum” (Journal of Biomedicine and Biotechnology, 2009)

Target: T1, CpTopIB (Cryptosporidium parvum, UniProt Q5CY81)
T1 construct: gene cgd7_3350; expressed from YCpGAL in S. cerevisiae EKY3 (top1 deleted), purified on phosphocellulose and phenyl-sepharose; monomer; no tag mentioned
T1 sequence (Q5CY81 13-653): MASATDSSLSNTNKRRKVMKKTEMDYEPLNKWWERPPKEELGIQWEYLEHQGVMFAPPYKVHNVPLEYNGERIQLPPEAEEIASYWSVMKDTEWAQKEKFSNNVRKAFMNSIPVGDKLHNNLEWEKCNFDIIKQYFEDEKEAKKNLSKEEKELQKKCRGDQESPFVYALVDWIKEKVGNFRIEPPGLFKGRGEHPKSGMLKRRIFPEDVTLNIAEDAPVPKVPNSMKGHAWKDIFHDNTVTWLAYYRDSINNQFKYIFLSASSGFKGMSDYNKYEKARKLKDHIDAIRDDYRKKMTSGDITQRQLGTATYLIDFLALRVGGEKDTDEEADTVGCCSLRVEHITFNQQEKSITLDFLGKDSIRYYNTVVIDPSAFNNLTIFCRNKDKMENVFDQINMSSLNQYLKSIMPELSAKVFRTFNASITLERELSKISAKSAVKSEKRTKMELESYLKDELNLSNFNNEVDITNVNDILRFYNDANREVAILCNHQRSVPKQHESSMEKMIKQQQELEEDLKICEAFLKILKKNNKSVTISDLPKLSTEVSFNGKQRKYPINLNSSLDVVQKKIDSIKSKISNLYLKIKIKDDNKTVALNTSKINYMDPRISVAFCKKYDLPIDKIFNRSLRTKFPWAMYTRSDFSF
Test: DNA cleavage assay, nicked DNA on agarose gel
Type: biochemical
Settings: supercoiled phiX174 RF I DNA, pH 7.5, 50 mM KCl, 1% DMSO, 30 or 37°C; stabilises the enzyme-DNA cleavable complex

Structure (SMILES)	nicked-DNA increase at 10 and 100 μM
CC[C@@]1(O)C(=O)OCc2c1cc1n(c2=O)Cc2cc3ccccc3nc2-1 [CPT, camptothecin]	There is a dose-dependent nicked-DNA increase for CPT and topotecan
CC[C@@]1(O)C(=O)OCc2c1cc1n(c2=O)Cc2cc3c(CN(C)C)c(O)ccc3nc2-1 [topotecan]	There is a dose-dependent nicked-DNA increase for CPT and topotecan
